US8158672B2, “Fluoroalkoxy-substituted 1,3-dihydro-isoindolyl compounds and their pharmaceutical uses” (Celgene Corporation, priority 2002, dated 2012)

Row | SMILES | melting point [°C]
1 | CCOc1cc(C(CS(C)(=O)=O)N2Cc3cccc(NC(=O)C4CC4)c3C2=O)ccc1OC(F)F (centres unmarked) [Example 35, Cyclopropanecarboxylic acid {2-[1-(4-difluoromethoxy-3-ethoxy-phenyl)-2-methanesulfonyl-ethyl]-3-oxo-2,3-dihydro-1H-isoindol-4-yl}-amide] | 115 to 117
2 | CN(C)C(=O)CC(c1ccc(OC(F)F)c(OC(F)F)c1)N1Cc2cccc(NC(=O)C3CC3)c2C1=O (centres unmarked) [Example 42, Cyclopropanecarboxylic acid {2-[1-(3,4-bis-difluoromethoxy-phenyl)-2-dimethylcarbamoyl-ethyl]-3-oxo-2,3-dihydro-1H-isoindol-4-yl}-amide] | 158 to 160
3 | NC(=O)CC(c1ccc(OC(F)F)c(OC(F)F)c1)N1Cc2cccc(NC(=O)C3CC3)c2C1=O (centres unmarked) [Example 43, Cyclopropanecarboxylic acid {2-[1-(3,4-bis-difluoromethoxy-phenyl)-2-carbamoyl-ethyl]-3-oxo-2,3-dihydro-1H-isoindol-4-yl}-amide] | 198 to 200
4 | CCOc1cc(C(CC(=O)N2CCOCC2)N2Cc3cccc(NC(C)=O)c3C2=O)ccc1OC(F)F (centres unmarked) [Example 39, N-{2-[1-(4-Difluoromethoxy-3-ethoxy-phenyl)-3-morpholin-4-yl-3-oxo-propyl]-3-oxo-2,3-dihydro-1H-isoindol-4-yl}-acetamide] | 164 to 166
5 | O=C(O)CC(c1ccc(OC(F)F)c(OC(F)F)c1)N1Cc2cccc(NC(=O)C3CC3)c2C1=O (centres unmarked) [Example 45, 3-(3,4-Bis-difluoromethoxy-phenyl)-3-[7-(cyclopropanecarbonyl-amino)-1-oxo-1,3-dihydro-isoindol-2-yl]-propionic acid] | 94 to 96
6 | COC(=O)CC(c1ccc(OC(F)F)c(OC(F)F)c1)N1Cc2c(Cl)ccc(NC(=O)C3CC3)c2C1=O (centres unmarked) [Example 41, 3-(3,4-Bis-difluoromethoxy-phenyl)-3-[4-chloro-7-(cyclopropanecarbonyl-amino)-1-oxo-1,3-dihydro-isoindol-2-yl]-propionic acid methyl ester] | 175 to 177
7 | CC(=O)Nc1cccc2c1C(=O)N(C(CC(=O)N(C)C)c1ccc(OC(F)F)c(OCC3CC3)c1)C2=O (centres unmarked) [Example 5, 3-(4-Acetylamino-1,3-dioxo-1,3-dihydro-isoindol-2-yl)-3-(3-cyclopropylmethoxy-4-difluoromethoxy-phenyl)-N,N -dimethyl-propionamide] | 80 to 82
8 | CCOc1cc(C(CC(=O)O)N2C(=O)c3cccc(NC(C)=O)c3C2=O)ccc1OC(F)F (centres unmarked) [Example 30, 3-(4-Acetylamino-1,3-dioxo-1,3-dihydro-isoindol-2-yl)-3-(4-difluoromethoxy-3-ethoxy-phenyl)-propionic acid] | 89 to 91
9 | CCOc1cc(C(CC(=O)NO)N2Cc3cccc(NC(=O)C4CC4)c3C2=O)ccc1OC(F)F (centres unmarked) [Example 26, Cyclopropanecarboxylic acid {2-[1-(4-difluoromethoxy-3-ethoxy-phenyl)-2-hydroxycarbamoyl-ethyl]-3-oxo-2,3-dihydro-1H-isoindol-4-yl}-amide] | 116 to 118
10 | CCOc1cc(C(CC(N)=O)N2Cc3cccc(NC(C)=O)c3C2=O)ccc1OC(F)F (centres unmarked) [Example 27, 3-(7-Acetylamino-1-oxo-1,3-dihydro-isoindol-2-yl)-3-(4-difluoromethoxy-3-ethoxy-phenyl)-propionamide] | 129 to 131
11 | CCOc1cc(C(CC(=O)NO)N2C(=O)c3cccc(NC(C)=O)c3C2=O)ccc1OC(F)F (centres unmarked) [Example 33, 3-(4-Acetylamino-1,3-dioxo-1,3-dihydro-isoindol-2-yl)-3-(4-difluoromethoxy-3-ethoxy-phenyl)-N-hydroxy-propionamide] | 148 to 150
12 | CCOc1cc(C(CC(N)=O)N2Cc3cccc(NC(=O)C4CC4)c3C2=O)ccc1OC(F)F (centres unmarked) [Example 24, Cyclopropanecarboxylic acid {2-[2-carbamoyl-1-(4-difluoromethoxy-3-ethoxy-phenyl)-ethyl]-3-oxo-2,3-dihydro-1H -isoindol-4-yl}-amide] | 179 to 181
13 | CCOc1cc(C(CC(N)=O)N2Cc3c(Cl)ccc(NC(=O)C4CC4)c3C2=O)ccc1OC(F)F (centres unmarked) [Example 37, Cyclopropanecarboxylic acid {2-[2-carbamoyl-1-(4-difluoromethoxy-3-ethoxy-phenyl)-ethyl]-7-chloro-3-oxo-2,3-dihydro-1H-isoindol-4-yl}-amide] | 198 to 200
14 | CCOc1cc(C(CC(=O)N2CCOCC2)N2C(=O)c3cccc(NC(C)=O)c3C2=O)ccc1OC(F)F (centres unmarked) [Example 38, N-{2-[1-(4-Difluoromethoxy-3-ethoxy-phenyl)-3-morpholin-4-yl-3-oxo-propyl]-1,3-dioxo-2,3-dihydro-1H-isoindol-4-yl}-acetamide] | 109 to 111
15 | CC(=O)Nc1cccc2c1C(=O)N(C(CC(=O)N(C)C)c1ccc(OC(F)F)c(OC(F)F)c1)C2=O (centres unmarked) [Example 40, 3-(4-Acetylamino-1,3-dioxo-1,3-dihydro-isoindol-2-yl)-3-(3,4-bis-difluoromethoxy-phenyl)-N,N-dimethyl-propionamide] | 83 to 85
16 | CCOc1cc(C(CC(=O)O)N2Cc3cccc(NC(C)=O)c3C2=O)ccc1OC(F)F (centres unmarked) [Example 22, 3-(7-Acetylamino-1-oxo-1,3-dihydro-isoindol-2-yl)-3-(4-difluoromethoxy-3-ethoxy-phenyl)-propionic acid] | 105 to 107
17 | CN(C)C(=O)CC(c1ccc(OC(F)F)c(OCC2CC2)c1)N1Cc2cccc(N)c2C1=O (centres unmarked) [Example 14, 3-(7-Amino-1-oxo-1,3-dihydro-isoindol-2-yl)-3-(3-cyclopropylmethoxy-4-difluoromethoxy-phenyl)-N,N-dimethyl-propionamide] | 70 to 72
18 | CCOc1cc(C(CC(N)=O)N2C(=O)c3cccc(NC(C)=O)c3C2=O)ccc1OC(F)F (centres unmarked) [Example 31, 3-(4-Acetylamino-1,3-dioxo-1,3-dihydro-isoindol-2-yl)-3-(4-difluoromethoxy-3-ethoxy-phenyl)-propionamide] | 178 to 180
19 | O=C(CC(c1ccc(OC(F)F)c(OCC2CC2)c1)N1C(=O)c2ccccc2C1=O)NO (centres unmarked) [Example 8, 3-(3-Cyclopropylmethoxy-4-difluoromethoxy-phenyl) -3-(1,3-dioxo-1,3-dihydro-isoindol-2-yl)-N-hydroxy-propionamide] | 129 to 131
20 | CCOc1cc(C(CC(=O)N(C)C)N2C(=O)c3cccc(NC(C)=O)c3C2=O)ccc1OC(F)F (centres unmarked) [Example 32, 3-(4-Acetylamino-1,3-dioxo-1,3-dihydro-isoindol-2-yl)-3-(4-difluoromethoxy-3-ethoxy-phenyl)-N,N-dimethyl-propionamide] | 163 to 165
21 | CCOc1cc(C(CC(=O)NO)N2Cc3cccc(NC(C)=O)c3C2=O)ccc1OC(F)F (centres unmarked) [Example 29, 3-(7-Acetylamino-1-oxo-1,3-dihydro-isoindol-2-yl)-3-(4-difluoromethoxy-3-ethoxy-phenyl)-N-hydroxy-propionamide] | 121 to 123
22 | CC(=O)Nc1cccc2c1C(=O)N(C(CC(N)=O)c1ccc(OC(F)F)c(OCC3CC3)c1)C2=O (centres unmarked) [Example 6, 3-(4-Acetylamino-1,3-dioxo-1,3-dihydro-isoindol-2-yl) -3-(3 cyclopropylmethoxy-4-difluoromethoxy-phenyl) -propionamide] | 77 to 79
23 | CCOc1cc(C(CC(=O)N(C)C)N2Cc3cccc(NC(=O)C4CC4)c3C2=O)ccc1OC(F)F (centres unmarked) [Example 25, Cyclopropanecarboxylic acid {2-[1-(4-difluoromethoxy-3-ethoxy-phenyl)-2-dimethylcarbamoyl-ethyl]-3-oxo-2,3-dihydro-1H-isoindol-4-yl}-amide] | 135 to 137
24 | CCOc1cc(C(CC(=O)N(C)C)N2Cc3cccc(NC(C)=O)c3C2=O)ccc1OC(F)F (centres unmarked) [Example 28, 3-(7-Acetylamino-1-oxo-1,3-dihydro-isoindol-2-yl)-3-(4-difluoromethoxy-3-ethoxy-phenyl)-N,N-dimethyl-propionamide] | 141 to 143
25 | O=C(CC(c1ccc(OC(F)F)c(OC(F)F)c1)N1Cc2cccc(NC(=O)C3CC3)c2C1=O)NO (centres unmarked) [Example 44, Cyclopropanecarboxylic acid {2-[1-(3,4-bis-difluoromethoxy-phenyl)-2-hydroxycarbamoyl-ethyl]-3-oxo-2,3-dihydro-1H-isoindol-4-yl}-amide] | 191 to 193
26 | CCOc1cc(C(CS(C)(=O)=O)N2C(=O)c3cccc(NC(C)=O)c3C2=O)ccc1OC(F)F (centres unmarked) [Example 36] | 118 to 120
